# Reference: patent US20210316010A1, “DRUG DELIVERY PRODUCT, COMPOSITION AND SYSTEM” (MASTER DYNAMIC LIMITED, priority 2018, published 2021)
# What was measured:
# SAS MCTS = test: Penetration and distribution in SAS multicellular tumor spheroids (MCTS), confocal microscopy; type: cell-based, Human; details: after 1 day of incubation
# Protocol: In order to investigate the penetration of DOX with different formulations (ND-DOX and ND-HSA-DOX) in tissue model in vitro, SAS MCTS were used to incubate with ND, free DOX, ND-DOX and ND-HSA-DOX.
# The ND and DOX with different formulations complex uptake and distribution in SAS MCTS model was monitored by using CLSM.
# The cell nuclei were stained with Hoechst […] which emits blue fluorescence (440 nm-484 nm), cell membrane were dyed with 3,3′-dipentyloxacarbocyanine iodide (DIOC'5), and the signal was collected in the 520-555 nm range, shown in red color.
# In order to promote the multicellular tumor spheroids (MCTS) formation, SAS cells were seeded in Gravity TRAP ULA Plate, by Insphero, at a density of 5,000 cells per well and cultured at 37° C. with 5% CO2 for 3 days before drug treatment.
# For the distributions of ND, DOX, ND-DOX and ND-HSA-DOX within MCTS were determined by confocal laser microscopy.
# SAS MCTS were treated with ND, DOX, ND-DOX and ND-HSA-DOX for 4 days. Each day, one of treatment MCTS was harvested and fixed with 3.7% formaldehyde for 24 h. Washing the MCTS 3 time with PBS, and MCTS was incubated with DIOC'5 for 24 h. After washing 3 times, Hoechst 33342 was incubated with MCTS for 24 h. Then MCTS was observed by confocal microscopy.
# SAS cells = test: Monolayer 2D SAS cellular uptake, confocal laser scanning microscopy; type: cell-based, Human; details: 4 hrs incubation, DOX 20 μg/ml
# Description: Intracellular trafficking and distribution of DOX within SAS cells were used to further investigate the outcomes, by using confocal laser scanning microscopy (CLSM), as shown in the images of FIGS. 21 and 21I.
# The 50 nm ND fluorescence was excited with 488 nm, and collected in range 500-515 nm. The ND's fluorescence in this range corresponds predominantly to emission from diamond H^3 defect centers with emission peak near 505 nm, shown as green colour 206. The bright fields as evidenced, were also provided to reveal the morphologies of SAS cells.
# Human Oral Squamous Carcinoma cell (SAS) cells were cultured in DMEM medium (Gibco, Invitrogen, UK). The medium was supplemented with 2 mM L-glutamine (Invitrogen, USA), 1.5 g/L sodium bicarbonate (Sigma, UK), 10% fetal bovine serum (Gibco/Life Technologies, Carlsbad, Calif., USA).
# Cells were maintained under standard cell culture conditions in an incubator (Galaxy 170S, Eppendorf, USA) containing 95% air and 5% CO2 at 37° C. humid environment.
# Culture medium was replaced with a fresh medium every 48 or 72 hr. […]
# Unreacted samples were removed by washing. […] The emission of DOX was absorbed at 570-590 nm and ND was detected at 500-515 nm.
# HeLa cells = details: treatment for 5 h; cited from earlier work
structure (smiles),measurement,setting,value
"COc1cccc2c1C(=O)c1c(O)c3c(c(O)c1C2=O)C[C@@](O)(C(=O)CO)C[C@@H]3O[C@H]1C[C@H](N)[C@H](O)[C@H](C)O1.Cl [DOX, doxorubicin hydrochloride]",penetration in SAS MCTS,SAS MCTS,limited to the outer cell layers
same,intracellular distribution of DOX,SAS cells,distributed on cytoplasm
same,intracellular location of DOX,HeLa cells,located in nuclear of HeLa cells
